According to patent publication US7829283B2, “Methylation of estrogen receptor alpha and uses thereof” (John Wayne Cancer Institute, priority 2006, dated 2010):

Key:
[1] = test system: ER-α mRNA expression in MCA melanoma cell line; assay: ER-α mRNA re-expression by RT-PCR in melanoma cell lines after 5-Aza and TSA treatment; assay type: cell-based, human; settings: data not shown
Protocol: To confirm down-regulation of ER-α expression by hypermethylation of the ER-α promoter region, cell lines were treated with the DNA-demethylating agent, 5-Aza, and the HDAC inhibitor, TSA. In combination with 5-Aza treatment, TSA can up-regulate the mRNA expression of genes silenced due to hypermethylation (26, 27). The MCF-7 cell line was used as an ER-α positive control and the MCA cell line was used as an ER-α negative control. Cell lines were maintained in RPMI 1640 medium supplemented with heat-inactivated 10% fetal bovine serum (FBS), penicillin G, and streptomycin (100 U/ml). Cells were treated with 1000 nM TSA for 24 hr (Wako Biochemicals, Osaka, Japan) and 1000 nM 5-Aza for five days (Sigma Chemical Co., St Louis, Mo.). After treatment with 5-Aza and TSA, melanoma cells were washed with phosphate buffered saline (PBS) and harvested with 0.25% trypsin-0.53 mM EDTA (Gibco, Auckland, N.J.). The mRNA expression level of ER-α was assessed by RT-PCR before and after 5-Aza and TSA treatment. […] The RNA was quantified and assessed for purity using ultraviolet spectrophotometry and the RIBOGreen detection assay (Molecular Probes, Eugene, Oreg.). The expression of mRNA for GAPDH, an internal reference housekeeping gene, was assessed by RT-PCR on all RNA samples to verify the integrity of RNA and to indicate equal loading of PCR products for gel electrophoresis. […]

melanoma cells = settings: in vitro experiments; cited from earlier work
advanced melanoma = settings: chemotherapy and BC regimens; cited from earlier work

| Structure (SMILES) | ER-α mRNA expression, single agent versus need for the second agent [1] | growth inhibition of melanoma cells in vitro (melanoma cells) | overall survival in advanced melanoma (advanced melanoma) |
| --- | --- | --- | --- |
| Nc1ncn([C@H]2C[C@H](O)[C@@H](CO)O2)c(=O)n1 [5-Aza, 5-aza-2-deoxycytidine] | did not significantly increase | – | – |
| CC(/C=C/C(=O)NO)=C\[C@@H](C)C(=O)c1ccc(N(C)C)cc1 [TSA, trichostatin A] | necessary to significantly increase expression above pretreatment levels | – | – |
| CC/C(=C(\c1ccccc1)c1ccc(OCCN(C)C)cc1)c1ccccc1 [tamoxifen] | – | effective growth inhibitor | has not been shown to significantly improve overall survival |
